Values of other authors as cited in patent US8911765B2, “Biodegradable, polymer coverings for breast implants” (Tyrx, Inc., priority 2007, dated 2014).

Conditions: rabbit, in vivo

**Q.** For `O=S(=O)([O-])CCS.[Na+]` [Mesna, sodium 2-mercaptoethane sulfonate], which “capsule formation around implants” value is on record?
**A.** reduce capsule formation
